The text below walks through data of publication PMC10447463, “Data-mining unveils structure–property–activity correlation of viral infectivity enhancing self-assembling peptides” (Nature Communications, 2023).

Series [1] can be described thus: Zeta-potential measurement. The conditions noted are these: zeta potential of peptide; Fig S15 source data. Type of series: physicochemical. On the procedure:
4 µL of 1 mg/mL peptide fibrils solution is added to a 20 µL, 50 µM ThT–solution in PBS. The mixture is incubated for 15 min at RT to allow binding of ThT dye with β–sheet rich structures. For reference PBS (4 µL) was added instead of peptide fibril solution. The samples were placed in black UV Star® 384 microliter well–plates (Greiner bio–one). Fluorescence spectra were recorded on an Infinite® M1000 PRO microplate reader (Tecan) at λem = 488 nm upon excitation at λex = 440 nm with 10 nm bandwidths and multiple reads per well (3×3). Measurements were repeated in triplicates and averaged with standard deviation. […] Zeta-Potential. For the determination of the surface charge of aggregated peptides zeta-potential measurements were conducted with a Zetasizer Nano ZS, Malvern Instruments. Unless stated otherwise the peptides were dissolved from DMSO (10 mg/mL) in PBS (pH 7.4) to concentration of 1 mg/mL and incubated for 1d at RT. Just before the measurement the 60 µL of the peptides were further diluted in 600 µL KCl (aq, 1 mM) in a 1 mL disposable folded capillary cells (DTS–1060, Zetasizer Nano series, Malvern). The zeta potential of the peptides was derived from the electrophoretic mobility based on the Smoluchowski formula. All measurements were averaged over two individually performed experiments and conducted in triplicates for each sample. Aggregate analysis. […] Furthermore, fluorescence microscopy was conducted by staining 1 µL preformed fibrils (1 mg/mL) with 9 µL ThT (50 µM). Brightfield microscopy was performed simultaneously to evaluate aggregation also for non ThT-active fibrils. The measurements were performed on a Leica DMi8 microscope with 10x air objective and equipped with a Leica MC170 HD camera with a filter setting λem = 527/30 nm upon excitation at λex = 480/40 nm) and processed with the Leica LASX software. To quantify size and number of microscopic aggregation of particles > 10 µm^2 at least 3 independently measured images were analyzed via the 3D object counter analysis tool of ImageJ, v 1.53f51. Sum–frequency generation. The SFG experiments were carried out with a femtosecond Ti: Sapphire amplified laser system (Spitfire Ace, Spectra–Physics, 800 nm, 40 fs, 1 kHz) with 5 W output power. We used 2 W to pump an optical parametric amplifier (TOPAS, light conversion) with a non–collinear difference frequency generation stage to generate broadband IR pulses. Another 1 W of the laser output passed through an etalon to generate narrowband visible pulses (10 cm^-1). The incident angles of the visible and IR beams were 36° and 41° with respect to the surface normal, respectively. The visible (13 µJ) and IR (5 µJ) pulses were overlapped spatially and temporally at the sample position. Subsequently, the generated SFG pulse was guided into a spectrograph (Acton SP 300i, Princeton Instruments), and detected with an EMCCD (Newton, Andor Technology). To avoid IR absorption of water vapor, we purged N2 for the measurement. All spectra were collected in the ssp (denoting s-, s- and p-polarized SFG, visible and IR, respectively) polarization combination. The spectra were normalized to the non–resonant signal taken from z–cut quartz after subtracting a background spectrum. […]

Series [2] deals with HIV-1 infection of TZM-bl cells. The experiment in a line: HIV-1 infectivity enhancement assay, β-galactosidase luminescence. Type of series: cell-based. The settings on record: for Log10 Inf. rel. to EF-C: log10 of HIV-1 infection of TZM-bl cells relative to EF-C, Fig S15 source data, asymmetric std dev errors.
Series [3] is classed as physicochemical. The settings on record: ThT-active if fluorescence at least twice the control. On the procedure:
4 µL of 1 mg/mL peptide fibrils solution is added to a 20 µL, 50 µM ThT–solution in PBS. The mixture is incubated for 15 min at RT to allow binding of ThT dye with β–sheet rich structures. For reference PBS (4 µL) was added instead of peptide fibril solution. The samples were placed in black UV Star® 384 microliter well–plates (Greiner bio–one). Fluorescence spectra were recorded on an Infinite® M1000 PRO microplate reader (Tecan) at λem = 488 nm upon excitation at λex = 440 nm with 10 nm bandwidths and multiple reads per well (3×3). Measurements were repeated in triplicates and averaged with standard deviation. […] Zeta-Potential. For the determination of the surface charge of aggregated peptides zeta-potential measurements were conducted with a Zetasizer Nano ZS, Malvern Instruments. Unless stated otherwise the peptides were dissolved from DMSO (10 mg/mL) in PBS (pH 7.4) to concentration of 1 mg/mL and incubated for 1d at RT. Just before the measurement the 60 µL of the peptides were further diluted in 600 µL KCl (aq, 1 mM) in a 1 mL disposable folded capillary cells (DTS–1060, Zetasizer Nano series, Malvern). The zeta potential of the peptides was derived from the electrophoretic mobility based on the Smoluchowski formula. All measurements were averaged over two individually performed experiments and conducted in triplicates for each sample. Aggregate analysis. […] Furthermore, fluorescence microscopy was conducted by staining 1 µL preformed fibrils (1 mg/mL) with 9 µL ThT (50 µM). Brightfield microscopy was performed simultaneously to evaluate aggregation also for non ThT-active fibrils. The measurements were performed on a Leica DMi8 microscope with 10x air objective and equipped with a Leica MC170 HD camera with a filter setting λem = 527/30 nm upon excitation at λex = 480/40 nm) and processed with the Leica LASX software. To quantify size and number of microscopic aggregation of particles > 10 µm^2 at least 3 independently measured images were analyzed via the 3D object counter analysis tool of ImageJ, v 1.53f51. Sum–frequency generation. The SFG experiments were carried out with a femtosecond Ti: Sapphire amplified laser system (Spitfire Ace, Spectra–Physics, 800 nm, 40 fs, 1 kHz) with 5 W output power. We used 2 W to pump an optical parametric amplifier (TOPAS, light conversion) with a non–collinear difference frequency generation stage to generate broadband IR pulses. Another 1 W of the laser output passed through an etalon to generate narrowband visible pulses (10 cm^-1). The incident angles of the visible and IR beams were 36° and 41° with respect to the surface normal, respectively. The visible (13 µJ) and IR (5 µJ) pulses were overlapped spatially and temporally at the sample position. Subsequently, the generated SFG pulse was guided into a spectrograph (Acton SP 300i, Princeton Instruments), and detected with an EMCCD (Newton, Andor Technology). To avoid IR absorption of water vapor, we purged N2 for the measurement. All spectra were collected in the ssp (denoting s-, s- and p-polarized SFG, visible and IR, respectively) polarization combination. The spectra were normalized to the non–resonant signal taken from z–cut quartz after subtracting a background spectrum.
(§1) 1. Remarks on experimental parameters and bioinformatic descriptors

The format of series [4] is physicochemical. The arrangement: key to Fibril / Fibril Formation / TEM 2cat / Fibril: 1 = fibrils present; 0 non-fibrillar structures. The settings on record: TEM, 1 mg/mL, uranyl acetate stain, qualitative. On the procedure: For ATR FT–IR spectroscopy measurements, 200 µL of the respective 1 mg/mL PNF solution was lyophilized and the resulting powder used for measurement. All spectra were recorded on a Bruker Tensor 27 spectrometer with a diamond crystal as ATR element (PIKE MiracleTM, spectral resolution 2 cm^-1). Every sample was measured with 64 scans. Data were analyzed with OriginLab software and calculation of β–sheet content was conducted according to a previous report. TEM. For TEM measurements 5 µL of PNF fibrils (1 mg/mL) were placed on copper grids coated with carbon and formvar layer (300 mesh, Plano GmbH). After 10 min incubation time, the grids were staining with 4% uranyl acetate solution for 2.5 min and washed with water. Measurements were performed on a Jeol 1400 electron microscope with 120 kV acceleration voltage. CR Assay. For the determination of the amount of peptide monomer converting into nanostructures the amine reactive dye fluorescamine was used analogous to a previous reported protocol. Briefly, 100 µL of the preformed PNF solution was centrifuged in a Vivaspin 500 tube (3 kDa MWCO) to separate fibers from free peptide monomer (16200 x g, 4 °C, 45 min). The filtrate and 100 μL of the non-filtered PNF sample were lyophilized and dissolved in 30 μL DMSO. 10 μL of the filtrate and non-filtered DMSO samples were submitted in a black UV Star® 384 microliter well–plates (Greiner bio–one) and 3 μL of the fluorescamine solution (10 mg/mL, DMSO) was added to measure the fluorescence enhancement. After 20 min of incubation at RT, fluorescence was recorded on an Infinite® M1000 PRO microplate reader (Tecan) at λem = 470 nm upon excitation at λex = 365 nm with 10 nm bandwidths and multiple reads per well (3×3). Measurements were repeated in triplicates and averaged with standard deviation. All values were calculated as n-fold fluorescence enhancement (DMSO only as a reference was set to 1). The conversion rate CR was defined according to the equation Eq. (3).3 CR=100−100×fluorescenceintensityfiltrate/fluorescenceintensityoriginal[%]
as §1
1.1 Experimental parameters
Transmission electron microscopy (TEM) measurements. TEM measurements were used to control if peptides assemble. The assemblies were categorized in non -fibrillar structures (no assembly, […]
grid but only amorphous aggregates. In contrast, peptides defined as fibrillar may also include amorphous structures. Amongst nonfibrillar assemblies also amorphous aggregates are summarized.
Amorphous aggregates are defined as structures with high β-sheet content which lack long-range order, that is crystallinity or fibril formation. It is generally assumed that these structures might be

Where [5] appears, read: infectivity class (low / medium / high) of each library peptide, main list in c1-c6, same classes repeated in sub-lists of sequences containing the hydrophobicity/charge patterns P+,H0,P+,H0,P0,H0,P0, P+,H0,P0,H0,P0,H0,P0, P+,H0,P0,H0.
Where [6] appears, read: input.xlsx of the Pattern-Analysis script, infectivity relative to EF-C (peptide 59 = 1.00).

With TKTLTKTL [CN25], the “Zeta-pot. / mV” value in series [1] was -25.1 mV. The infectivity result in series [2] (setting [5]) was “low”. Further, in series [2], the “Log10 Inf. rel. to EF-C” value is -1.671.
Turning to RPRGLLLGNLR [CN20], in series [1], the “Zeta-pot. / mV” value is given as -8.15 mV. In addition, the infectivity result in series [2] (setting [5]) is listed as “low”. The “Log10 Inf. rel. to EF-C” value in series [2] is given as -1.3163.
The like results for HRRHFRHKITKKK [CN29] were, in that order, -9.223 mV, “low” and -1.868.
Take RVWWNF: in series [3], the “ThT Cat. / ThT-Fluorescence (categorical)” value (“ThT Cat. / ThT-Fluorescence” below) is 0 (ThT-inactive (N-Fold <2)). For the same substance, the “Fibril / Fibril Formation” value in series [4] worked out at 0.
On to KKWWNF, for which the “ThT Cat. / ThT-Fluorescence” value in series [3] is 0 (ThT-inactive (N-Fold <2)). The “Fibril / Fibril Formation” value in series [4] was found to be 0.
On to KVWWNF, for which the “ThT Cat. / ThT-Fluorescence” value in series [3] was 0 (ThT-inactive (N-Fold <2)). Moreover, in series [4], the “Fibril / Fibril Formation” value is 0.
Consider KNERIKNERI [compound 46], for which the infectivity in series [2] (setting [6]) was 0.013.
As for KIKIQINMWQRGD [compound 161], in series [2] (setting [6]), the infectivity is reported as 0.0121.
As for EIEIEIEI [compound 82], in series [2] (setting [6]), the infectivity came out at 0.0178.
On to KIKQIINM [compound 73], for which the infectivity in series [2] (setting [6]) was determined as 0.45.
Same read-out and setting: in the case of CKIKQIINMWQ [compound 101] it was 1.24; in that of KIKIQINMWQ [compound 61], 0.30.
Same read-out and setting: the value for CKAKAQANMWQ [compound 10] was 0.0437; that for KFKFQFNMW [compound 7] was 0.45.
Consider KVKVQVVV [compound 123], for which, in series [2] (setting [6]), the infectivity was 0.0351.
As to KIKIKIKIYYYY [compound 86], the infectivity in series [2] (setting [6]) turned out to be 1.38.
For the substance NMWQKAKAQA [compound 62], in series [2] (setting [6]), the infectivity is 0.04.
On to RGECKFKFQF [compound 32], for which the infectivity in series [2] (setting [6]) was 0.33.
Same read-out and setting: the value for RGDKIKIQIC [compound 103] was 0.83; that for KIRGKFEKED [compound 47] was 0.06.
Take EIEIQINM [compound 155]: in series [2] (setting [6]), the infectivity is 0.0363.
Same read-out and setting: in the case of KVKGVGK [compound 43] it was 0.0259; in that of FKFDKFKFDK [compound 42], 0.0464.
As to KFKFQFFF [compound 114], the infectivity in series [2] (setting [6]) came out at 0.40.
QCKIKIQINM [compound 18]: in series [2] (setting [6]), the infectivity is recorded as 0.40.
On to CKAKAQA [compound 137], for which, in series [2] (setting [6]), the infectivity came to 0.03.
The same measure, in the same setting: the value for KLKLKLQL [compound 117] was 0.10.
QCKIKIQINMWQ [compound 60]: the infectivity in series [2] (setting [6]) stood at 1.04.
KKFQKKFQ [compound 37]: in series [2] (setting [6]), the infectivity is recorded as 0.0285.
On the same count and under the same terms, in the case of CKIKIQIRGD [compound 109] it was 0.33; in that of RGDCKFKFQF [compound 145], 0.15; in that of KFKFKFQF [compound 118], 0.80.
MKFM [compound 49]: the infectivity in series [2] (setting [6]) is 0.0175.
For the substance RGDKIKIQINM [compound 104], the infectivity in series [2] (setting [6]) stood at 0.41.
On the same count and under the same terms, the value for QCKFKFQFNMWQ [compound 25] was 0.62.
On to CRFRVPF [compound 55], for which, in series [2] (setting [6]), the infectivity is 0.02.
On the same count and under the same terms, in the case of KFKFQFN [compound 9] it was 0.018; in that of ILKNLSRSRKIKIQIC [compound 128], 0.34.
CKWKWQW [compound 94]: in series [2] (setting [6]), the infectivity worked out at 0.25.
Take CKIKIQINMW [compound 153]: in series [2] (setting [6]), the infectivity is listed as 1.29.
With KIKIQIRGD [compound 102], in series [2] (setting [6]), the infectivity is recorded as 0.02.
